Entries after “also recorded” stand apart in the source; their conditions may differ. Like-named read-outs stand apart in the source and are kept apart here.
Key:
[1] = target: T1, hERG channel (Homo sapiens, UniProt Q12809); test: Rb+ flux assay using HEK-hERG cells; settings: for effect on hERG ion flux (Rb+ flux, FIG. 6): HEK-hERG cells, overall statement, KCl and concentration not specified
Method: Briefly, 50,000 cells per well were plated in 96-well tissue culture treated plates 20 hours before assay. In the next day, cells were incubated with complete cell culture medium containing 5 mM RbCl for 3 hours at 37° C. with 5% CO2. Then compounds (10×) diluted in HBSS were added into the cell culture medium and cells were incubated at 37° C. with 5% CO2 for another hour. Cells were washed twice with Rb^+ free cell culture medium and incubated with 180 μl/well of cell culture medium containing different concentration of KCl for exactly 10 minutes. The supernatant from each well was transferred to a new 96 well plate immediately. Cells were lysed with 180 μl/well 0.5% Triton-100 in HBSS. The Rb^+ concentration of each sample was determined by ICR8000 (Aurora Biomed Inc.).

[2] = system: mallotoxin DMR signal in HT29 cells; test: DMR modulation index against the mallotoxin DMR signal in HT29 cells; format: cell-based, human
Description: (§1) A “molecule modulation index” or like terms is an index to display the ability of the molecule to modulate the biosensor output signals of the panels of markers acting on the panel of cells. The modulation index is generated by normalizing a specific biosensor output signal parameter of a response of a cell upon stimulation with a marker in the presence of a molecule against that in the absence of any molecule.
(§2) Epic® wavelength interrogation system (Corning Inc., Corning, N.Y.) was used for whole cell sensing. This system consists of a temperature-control unit, an optical detection unit, and an on-board liquid handling unit with robotics. The detection unit is centered on integrated fiber optics, and enables kinetic measures of cellular responses with a time interval of ˜15 sec.
(§3) Cells were plated in 384-well Epic® cell culture treated plate (Corning Cat#5040) 16-20 hours before assay (15000 cells/well for HEK293 and HEK-hERG cells, 30000 cells/well for HT29 cells). For both HEK-hERG and its parental HEK293 cells, each well was coated with 10 μl 5 μg/ml fibronectin. One hour before assay, cells were washed twice on a BioTek ELx405 Select washer with Hank's Balanced Salt Solution (HBSS) containing 20 mM Hepes. Cells were incubated in 40 μl/well HBSS at 28° C. inside the Epic system for one hour. For each assay, a 2-min baseline was initiated, followed by addition of 10 μl compound solutions (5×) and the cell responses were recorded continuously for one hour.
(§4) All studies were carried out at a controlled temperature (28° C.). At least two independent sets of experiments, each with at least three replicates, were performed. […] All dose-dependent responses were analyzed using non-linear regression method with the GraphPad Prism 5.
(§5) The DMR modulation index was generated by normalizing the mallotoxin DMR signal in either cell line in the presence of compound […] to its corresponding DMR signal in the absence of the compound, and the percentage of modulation was based on the amplitude of the mallotoxin DMR signal at a specific time (−18 min after stimulation for HEK-hERG cells, and ˜50 min after stimulation for HT29 cells, respectively). Mallotoxin is known to display polypharmacology. It is also known to be a protein kinase C (PKC) inhibitor; and PKC is a downstream signaling component of hERG activation. Thus, it would be difficult or almost impossible to assign the mode(s) of action of mallotoxin to be a hERG activator when either cell line is individually assayed with the label-free biosensor (i.e., Epic® system). […] However, combining the primary DMR profiles of a compound across the three cell lines tested with the modulation index of the compound against the mallotoxin responses in both HT29 and […] cells can correctly identify whether the compound is a hERG activator or not. The results shown in FIG. 1 indicate that indeed mallotoxin is a hERG activator; and the activation of hERG can result in detectable biosensor responses in the two hERG expressing cell lines.

[3] = system: hERG channel or hERG-associated signaling complex; test: Classification of hERG modulators by label-free biosensor profiles across three cell lines plus mallotoxin modulation index; format: cell-based, human
Description: The traditional hERG ion channel assay involves assaying ion flux such as Rb^+ flux using ion absorption assays, or assaying hERG currents directly using patch clamping methods. Traditionally, a molecule which causes increase in Rb^+ flux and/or hERG currents is referred to a hERG activator, while a molecule which inhibits Rb^+ flux and/or hERG currents is referred to a hERG inhibitor. […] These hERG activators may or may not result in detectable biosensor signals in cells, using label-free biosensor cellular assays. A hERG activator that results in a detectable biosensor signal in a hERG expressing cell via hERG or hERG signaling complex is also referred to a label-free biosensor hERG activator.
Disclosed are methods of classifying a molecule for modulating hERG activity, comprising the steps: a. incubating a molecule individually with at least three different types of cells consisting of a native cell endogenously expressing hERG, an engineered cell stably expressing hERG and its parental cell without expressing hERG, and b. monitoring the molecule induced cellular response on each cell type with a label-free biosensor cellular assay,
Also disclosed are methods, further comprising as steps c) incubating a label-free biosensor hERG activator with each cell type in the presence of the molecule, d. monitoring the label-free biosensor hERG activator induced cellular response on each cell type in the presence of the molecule, e. generating a biosensor modulation index of the molecule against the label-free biosensor hERG activator induced biosensor signals in the two hERG expressing cell types.
as §5

[4] = system: HEK-hERG cells; test: Label-free RWG biosensor (Epic) DMR assay, agonism mode, HEK-hERG cells stably expressing hERG; format: cell-based, human
Method: as §2, §3, §4
(§6) Three different types of cells: human colon cancerous cell line HT-29, HEK293 and its engineered HEK-hERG cell lines were used. HT-29 is known to endogenously express hERG channels. HEK293 is a native cell line without endogenously expressed hERG channels, while HEK-hERG is an engineered HEK293 cells having stably expressed hERG channels. Mallotoxin, a newly discovered hERG activator, was used to activate hERG channels at or near physiological conditions (i.e., 1×HBSS buffered conditions).

[5] = system: mallotoxin DMR signal in HEK-hERG cells; format: cell-based, human
Description: as §1, §2, §3, §4, §5

[6] = system: HEK293 cells; test: Label-free RWG biosensor (Epic) DMR assay, agonism mode, native HEK293 cells without hERG; format: cell-based, human
Method: as §2, §3
All studies were carried out at a controlled temperature (28° C.). At least two independent sets of experiments, each with at least three replicates, were performed. […] All dose-dependent responses were analyzed using non-linear regression method with the GraphPad Prism 5. […]

[7] = system: HT29 cells; test: Label-free RWG biosensor (Epic) DMR assay, agonism mode, HT29 cells endogenously expressing hERG; format: cell-based, human
Method: as §2, §3, §4, §6

[8] = system: phosphodiesterase 4; test: Effect on phosphodiesterase 4 activity (data not shown)
[9] = target: T1, hERG channel; test: Automated patch clamp recording of hERG current using IonWorks, CHO-hERG cells
Method: CHO—K1 cells stably expressing hERG channel (CHO-hERG) were cultured in T175 flask till about 70% confluent. Cells were washed twice with PBS, then 2.5 ml 0.25% Trypsin/EDTA was mixed with 2.5 ml PBS and added to the T175 flask. Cells were incubated about 2 minutes with the diluted Trypsin/EDTA solution at 37° C., then were continuously incubated about 3 minutes at room temperature. 20 ml fresh medium were added to suspend the cells and transfer to a 50 ml tube. Cells were centrifuged down at 750 rpm for 5 minutes. The extra medium was removed and cells were resuspended in 6 ml External Buffer (137 mM NaCl, 4 mM KCl, 1.8 mM CaCl2, 1 mM MgCl2, 10 mM HEPES, 10 mM glucose, pH 7.4). Then cells were centrifuged again at 450 rpm for another 5 minutes. Finally cells were resuspended in 4 ml the External Buffer, cell number was counted using a hemacytometer. Cell suspension was diluted to 2.5×10^6 cells/ml with the External Buffer. 4 ml of the resuspended cells were added to the cell reservoir in IonWorks. The Internal solution used contains: 40 mM KCl, 100 mM K-Gluconate, 3.2 mM MgCl2, 2 mM CaCl2, 5 mM HEPES, pH 7.25 (adjusted with KOH). 5 mg Amphotericin B from 200 ul DMSO stock was added to 65 ml the Internal solution and mixed well to achieve electrical access to the interior of cells on the patch plate.
Compounds were prepared from 10 mM DMSO stock and diluted in the External Buffer to make 3× compound solution. […] of the 3× compound solution was transferred to a 384 well plate in Row A, B, C and D. PD11857 (Sigma-Aldrich), a reported hERG channel activator was used as activator positive control (final concentration 30 and 50 μM). hERG blocker dofetilide was used as blocker positive control (final concentration 100 nM). The final DMSO concentration in the IonWorks Quattro PatchPlate PPC plate (Cat#9000-0902, Molecular Devices) was 0.5%. Final compound concentration was 50 μM. Each compound was added to four wells of one PPC plate.
hERG currents were recorded on IonWorks Quattro (Molecular Devices). To record hERG current, the cells were clamped at −80 mV initially, then followed by a 5-s depolarization at +40 mV to activate the channels. Tail currents were measured during an ensuing return to −35 mV. Data analysis were done using IonWorks Quttro® System Software version 2.0.4.4. Data from wells with seal resistance less than 50 MΩ or hERG tail currents less than 0.1 nA were filtered out. […] Inhibitor hits were selected if hERG tail currents ratio (post/pre-compound) is less than mean-2SD of the average DMSO control.
To record hERG current, the cells were clamped at −80 mV initially, then followed by a 5-s depolarization at +40 mV to activate the channels (phase a in FIG. 10A). Tail currents were measured during an ensuing return to −35 mV for 2 seconds (phase b in FIG. 10A). Final holding potential at −70 mV (phase c in FIG. 10B).

[10] = system: PKC; test: Effect on PKC activity (data not shown)
[11] = compound at 10 micromolar, mallotoxin 16 micromolar
[12] = 16 μM mallotoxin, blockers dose-dependent (30 μM, 30 min pretreatment in FIG. 8A)

T1 sequence (Q12809 whole entry): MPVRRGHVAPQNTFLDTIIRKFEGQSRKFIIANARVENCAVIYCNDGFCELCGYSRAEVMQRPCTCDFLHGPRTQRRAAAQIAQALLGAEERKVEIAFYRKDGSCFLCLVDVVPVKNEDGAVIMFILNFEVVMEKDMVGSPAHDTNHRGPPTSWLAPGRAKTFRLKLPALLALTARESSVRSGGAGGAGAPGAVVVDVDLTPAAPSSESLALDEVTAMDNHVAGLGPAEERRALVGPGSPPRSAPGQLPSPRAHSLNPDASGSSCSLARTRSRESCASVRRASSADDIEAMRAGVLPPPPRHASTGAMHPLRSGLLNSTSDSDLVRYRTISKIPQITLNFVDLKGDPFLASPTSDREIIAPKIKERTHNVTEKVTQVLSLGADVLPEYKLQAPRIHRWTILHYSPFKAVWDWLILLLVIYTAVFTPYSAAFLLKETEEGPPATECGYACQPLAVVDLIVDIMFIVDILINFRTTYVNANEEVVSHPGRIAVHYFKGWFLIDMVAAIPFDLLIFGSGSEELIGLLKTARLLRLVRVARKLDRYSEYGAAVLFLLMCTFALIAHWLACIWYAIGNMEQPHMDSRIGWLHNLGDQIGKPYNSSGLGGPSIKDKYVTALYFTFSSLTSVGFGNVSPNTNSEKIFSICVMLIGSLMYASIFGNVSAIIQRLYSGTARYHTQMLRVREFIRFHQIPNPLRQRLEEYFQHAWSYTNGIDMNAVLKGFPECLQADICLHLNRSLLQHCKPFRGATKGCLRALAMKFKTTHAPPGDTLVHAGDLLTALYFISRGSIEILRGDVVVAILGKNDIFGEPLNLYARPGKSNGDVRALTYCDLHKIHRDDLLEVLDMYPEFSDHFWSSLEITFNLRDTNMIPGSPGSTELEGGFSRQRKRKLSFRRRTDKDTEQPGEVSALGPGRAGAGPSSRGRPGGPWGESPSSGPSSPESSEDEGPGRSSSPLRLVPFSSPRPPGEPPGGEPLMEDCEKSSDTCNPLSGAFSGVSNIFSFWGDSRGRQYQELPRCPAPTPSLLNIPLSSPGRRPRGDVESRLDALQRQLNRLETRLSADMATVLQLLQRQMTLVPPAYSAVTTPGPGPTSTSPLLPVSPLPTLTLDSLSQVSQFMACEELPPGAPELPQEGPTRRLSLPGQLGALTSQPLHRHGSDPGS

## N#CC(C#N)=Cc1ccc([N+](=O)[O-])c(O)c1 [AG-126]
[1]
  effect on hERG ion flux (Rb+ flux, FIG. 6): little or no impact; also recorded: non-effector in hERG ion flux
[2]; [11]
  modulation of the mallotoxin DMR signal in HT29 cells: only partially attenuated
[3]
  hERG pathway activity class by label-free biosensor: hERG pathway activator, specifically in the endogenous hERG channel complex in HT29

## O=C(Nc1cc(C(F)(F)F)ccc1O)Nc1cc(C(F)(F)F)ccc1O [NS1643]
[4]; concentration not given, data not shown
  DMR signal in HEK-hERG cells: induced a detectable DMR signal

## COc1cc(N)c(Cl)cc1C(=O)NC1CCN(CCCOc2ccc(F)cc2)CC1OC (stereo not shown) [cisapride]
[5]
  effect of pretreatment on the mallotoxin DMR signal in HEK-hERG cells: dose-dependent suppression

## O=C(O)c1cc(-c2ccc(F)cc2F)ccc1O [diflunisal]
[1]; 5 mM KCl, compound at 10 or 50 μM
  Rb+ signal in HEK-hERG cells: only at 50 μM triggered a detectable increase
[1]
  effect on hERG ion flux (Rb+ flux, FIG. 6): weak hERG ion flux activator
[2]; [11]
  modulation of the mallotoxin DMR signal in HT29 cells: completely desensitized
[5]; human
  score of modulation index in coordination, HEK-hERG coordinate: 1
[3]
  hERG pathway activity class by label-free biosensor: hERG pathway activator

## O=C(O)c1cccnc1Nc1cccc(C(F)(F)F)c1 [niflumic acid]
[3]
  hERG pathway activity class by label-free biosensor: hERG pathway activator

## CC(C)(O)[C@H]1O[C@H]2CC[C@@]3(C)[C@@](O)(CC[C@H]4Cc5c([nH]c6ccccc56)[C@@]43C)C2=CC1=O [paxilline]
[5]; [12]
  effect of pretreatment on the mallotoxin DMR signal in HEK-hERG cells: no effect

## C=C(C)[C@H]1O[C@H]2CC[C@@]3(C)[C@@](O)(CC[C@H]4[C@@H]5OC(C)(C)[C@H]6C[C@@H]7C(=C)Cc8c(Cl)cc9[nH]c(c5c9c8[C@@]76O)[C@@]43C)[C@@]23O[C@H]3[C@H]1O [penitrem A]
[5]; [12]
  effect of pretreatment on the mallotoxin DMR signal in HEK-hERG cells: no effect

## O=C1NCCN1CCN1CCC(c2cn(-c3ccc(F)cc3)c3ccc(Cl)cc23)CC1 [sertindole]
[2]; dose dependent, concentrations not given
  modulation of the mallotoxin DMR signal in HT29 cells: attenuated
[6]
  DMR signal in HEK293 cells: did not trigger any DMR signals
[7]
  DMR signal in HT29 cells: did not trigger any DMR signals
[4]
  DMR signal in HEK-hERG cells: did not trigger any DMR signals

## N#CC(C#N)=C(N)/C(C#N)=C/c1cc(O)c(O)c(O)c1 [tyrphostin 51]
[1]
  effect on hERG ion flux (Rb+ flux, FIG. 6): little impact; also recorded: weak hERG ion flux activator
[2]; [11]
  modulation of the mallotoxin DMR signal in HT29 cells: only partially attenuated
[8]
  effect on activity of phosphodiesterase 4: suppresses the activity
[9]; 50 μM, tail current at return to −35 mV
  effect on hERG tail current: significantly suppressed
[9]; final compound concentration 50 μM
  effect on hERG current: hERG current inhibitor
[3]
  hERG pathway activity class by label-free biosensor: hERG pathway activator
[4]; compound at 10 μM
  DMR signal in HEK-hERG cells: robust but different DMR signals
[10]
  effect on activity of PKC: suppresses the activity

Reference: patent US20130040331A1, “LABEL-FREE METHODS RELATED TO hERG POTASSIUM ION [sequence]” (CORNING INCORPORATED, priority 2009, published 2013)
